Experimental data taken from US11458123B2 (Arvinas, Inc., priority 2016, dated 2022).

Test system: tau protein
Test: Tau protein in vitro degradation assay (Western blot, Tau-13 antibody)
Format: cell-based, human
Conditions: SK-N-SH cells, 72 hours of incubation; for Activity* (highest amount of degradation observed at any dosage, as tau protein remaining): tested at 1000 nM, 300 nM and 100 nM
Outline: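 Tau degradation read by Tau-13 Western blot (detects all human tau forms) of SDS-PAGE-resolved lysates from SK-N-SH cells. Cells were plated at least 18 h before 72 h exposure to PROTACs at either 1000/300/100 nM or 300/100/33/11 nM.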

[1] = tested at 300 nM, 100 nM, 33 nM and 11 nM, Western blot, Tau-13 antibody

O=C1CCC(N2C(=O)c3ccc(N4CCN(CCCc5ccc(O[C@H]6C[C@H](Oc7ccc(-c8ccc9c(c8)[nH]c8ccncc89)cn7)C6)cn5)CC4)cc3C2=O)C(=O)N1 (stereo partly shown) [Compound 64, 5-(4-(3-(5-((1r,3r)-3-((5-(5H-pyrido[4,3-b]indol-7-yl)pyridin-2-yl)oxy)cyclobutoxy)pyridin-2-yl)propyl)piperazin-1-yl)-2-(2,6-dioxopiperidin-3-yl)isoindoline-1,3-dione]
Degradation activity* (highest amount of degradation observed at any dosage; tau protein remaining) [1]: C (>80% tau protein remaining after 72 hours of incubation with the test compound)

Cn1c2ccncc2c2ccc(-c3ccc(O[C@H]4C[C@H](OC5CCN(CCCCCOc6ccc7c(c6)C(=O)N(C6CCC(=O)NC6=O)C7=O)CC5)C4)nc3)cc21 (stereo partly shown) [Compound 82, 2-(2,6-dioxopiperidin-3-yl)-5-((5-(4-((1r,3r)-3-((5-(5-methyl-5H-pyrido[4,3-b]indol-7-yl)pyridin-2-yl)oxy)cyclobutoxy)piperidin-1-yl)pentyl)oxy)isoindoline-1,3-dione]
Degradation activity* (highest amount of degradation observed at any dosage; tau protein remaining) [1]: C (>80% tau protein remaining after 72 hours of incubation with the test compound)

Cn1c2ccncc2c2ccc(-c3ccc(OCCCCOCCCCN4CC5(CC(Oc6ccc7c(c6)C(=O)N(C6CCC(=O)NC6=O)C7=O)C5)C4)nc3)cc21 (stereo not shown) [Compound 116, 2-(2,6-dioxopiperidin-3-yl)-5-((2-(4-(4-((5-(5-methyl-5H-pyrido[4,3-b]indol-7-yl)pyridin-2-yl)oxy)butoxy)butyl)-2-azaspiro[3.3]heptan-6-yl)oxy)isoindoline-1,3-dione]
Degradation activity* (highest amount of degradation observed at any dosage; tau protein remaining) [1]: C (>80% tau protein remaining after 72 hours of incubation with the test compound)

Cc1ncsc1-c1ccc([C@H](C)NC(=O)[C@@H]2C[C@@H](O)CN2C(=O)[C@@H](NC(=O)COCCCCCOc2ccc3nc(-c4ccc(N(C)C)cc4)ccc3c2)C(C)(C)C)cc1 [Compound 38, (2S,4R)-1-((S)-2-(2-(5-(2-(4-(dimethylamino)phenyl)quinolin-6-yloxy)pentyloxy)acetamido)-3,3-dimethylbutanoyl)-4-hydroxy-N—((S)-1-(4-(4-methylthiazol-5-yl)phenyl)ethyl)pyrrolidine-2-carboxamide]
Activity* (highest amount of degradation observed at any dosage, as tau protein remaining): C (>80% tau protein remaining after 72 hours of incubation with the test compound)

Cc1ncsc1-c1ccc(CNC(=O)[C@@H]2C[C@@H](O)CN2C(=O)[C@@H](NC(=O)COCCOCCOCCOCC(O)COc2ccc3nc(-c4ccc(N(C)C)cc4)ccc3c2)C(C)(C)C)cc1 (stereo partly drawn) [Compound 46, (2S,4R)-1-((2S)-2-tert-butyl-18-(2-(4-(dimethylamino)phenyl)quinolin-6-yloxy)-17-hydroxy-4-oxo-6,9,12,15-tetraoxa-3-azaoctadecane)-4-hydroxy-N-(4-(4-methylthiazol-5-yl)benzyl)pyrrolidine-2-carboxamide]
Activity* (highest amount of degradation observed at any dosage, as tau protein remaining): C (>80% tau protein remaining after 72 hours of incubation with the test compound)

Cn1c2ccncc2c2ccc(-c3ccc(O[C@H]4C[C@H](Oc5cccc(OCCCCCCOc6ccc7c(c6)C(=O)N(C6CCC(=O)NC6=O)C7=O)n5)C4)nc3)cc21 (stereo partly shown) [Compound 108, 2-(2,6-dioxopiperidin-3-yl)-5-((6-((6-((1r,3r)-3-((5-(5-methyl-5H-pyrido[4,3-b]indol-7-yl)pyridin-2-yl)oxy)cyclobutoxy)pyridin-2-yl)oxy)hexyl)oxy)isoindoline-1,3-dione]
Degradation activity* (highest amount of degradation observed at any dosage; tau protein remaining) [1]: C (>80% tau protein remaining after 72 hours of incubation with the test compound)

O=C1CCC(N2C(=O)c3ccc(OCCOCCOCCOCCOCCOc4ccc(-c5ccn6c(n5)nc5ccccc56)cn4)cc3C2=O)C(=O)N1 (stereo not shown) [Compound 207, 5-((14-((5-(benzo[4,5]imidazo[1,2-a]pyrimidin-2-yl)pyridin-2-yl)oxy)-3,6,9,12-tetraoxatetradecyl)oxy)-2-(2,6-dioxopiperidin-3-yl)isoindoline-1,3-dione]
Degradation activity (tau protein remaining; highest amount of degradation observed at any dosage) [1]: B (≤80% and >50% tau protein remaining after 72 hours of incubation with the test compound)

O=C1CCC(N2Cc3c(NCCOCCOCCOCCOCCOc4ccc(-c5ccc6c(c5)[nH]c5ccncc56)cn4)cccc3C2=O)C(=O)N1 (stereo not shown) [Compound 49, 3-(4-((14-((5-(5H-pyrido[4,3-b]indol-7-yl)pyridin-2-yl)oxy)-3,6,9,12-tetraoxatetradecyl)amino)-1-oxoisoindolin-2-yl)piperidine-2,6-dione]
Activity* (highest amount of degradation observed at any dosage, as tau protein remaining): A (≤50% tau protein remaining after 72 hours of incubation with the test compound)

O=C1CCC(N2C(=O)c3ccc(OCCOCCOCCOCCOCCOc4ccc(-c5ccc6c(c5)[nH]c5ccncc56)cn4)cc3C2=O)C(=O)N1 (stereo not shown) [Compound 51, 5-((14-((5-(5H-pyrido[4,3-b]indol-7-yl)pyridin-2-yl)oxy)-3,6,9,12-tetraoxatetradecyl)oxy)-2-(2,6-dioxopiperidin-3-yl)isoindoline-1,3-dione]
Degradation activity* (highest amount of degradation observed at any dosage; tau protein remaining) [1]: A (≤50% tau protein remaining after 72 hours of incubation with the test compound)

Cn1c2ccncc2c2ccc(-c3ccc(O[C@H]4C[C@@H](Oc5ccc(CCCOC6CN(c7ccc8c(c7)C(=O)N(C7CCC(=O)NC7=O)C8=O)C6)nc5)C4)nc3)cc21 (stereo partly shown) [Compound 160, 2-(2,6-dioxopiperidin-3-yl)-5-(3-(3-(5-((1 s,3s)-3-((5-(5-methyl-5H-pyrido[4,3-b]indol-7-yl)pyridin-2-yl)oxy)cyclobutoxy)pyridin-2-yl)propoxy)azetidin-1-yl)isoindoline-1,3-dione]
Degradation activity* (highest amount of degradation observed at any dosage; tau protein remaining) [1]: B (≤80% and >50% tau protein remaining after 72 hours of incubation with the test compound)

O=C1CCC(N2C(=O)c3cccc(NCCOCCOCCOCCOCC(=O)N4CCN(c5ccn6c(n5)nc5ccccc56)CC4)c3C2=O)C(=O)N1 (stereo not shown) [Compound 42, 4-((14-(4-(benzo[4,5]imidazo[1,2-a]pyrimidin-2-yl)piperazin-1-yl)-14-oxo-3,6,9,12-tetraoxatetradecyl)amino)-2-(2,6-dioxopiperidin-3-yl)isoindoline-1,3-dione]
Activity* (highest amount of degradation observed at any dosage, as tau protein remaining): C (>80% tau protein remaining after 72 hours of incubation with the test compound)

O=C1CCC(N2C(=O)c3ccc(OCCOCCOCCOCCOCCN4CCC(c5ccc6c(c5)[nH]c5ccncc56)CC4)cc3C2=O)C(=O)N1 (stereo not shown) [Compound 57, 5-((14-(4-(5H-pyrido[4,3-b]indol-7-yl)piperidin-1-yl)-3,6,9,12-tetraoxatetradecyl)oxy)-2-(2,6-dioxopiperidin-3-yl)isoindoline-1,3-dione]
Degradation activity* (highest amount of degradation observed at any dosage; tau protein remaining) [1]: C (>80% tau protein remaining after 72 hours of incubation with the test compound)

O=C1CCC(N2C(=O)c3ccc(OCCCCCOCCN4CCN(CCCc5ccc(-c6ccc7c(c6)[nH]c6ccncc67)cn5)CC4)cc3C2=O)C(=O)N1 (stereo not shown) [Compound 58, 5-((5-(2-(4-(3-(5-(5H-pyrido[4,3-b]indol-7-yl)pyridin-2-yl)propyl)piperazin-1-yl)ethoxy)pentyl)oxy)-2-(2,6-dioxopiperidin-3-yl)isoindoline-1,3-dione]
Degradation activity* (highest amount of degradation observed at any dosage; tau protein remaining) [1]: C (>80% tau protein remaining after 72 hours of incubation with the test compound)
